In experiment [1] the target is T1, PtmO5 (Streptomyces platensis, UniProt D8L2V0).
T1 sequence (D8L2V0 1-430): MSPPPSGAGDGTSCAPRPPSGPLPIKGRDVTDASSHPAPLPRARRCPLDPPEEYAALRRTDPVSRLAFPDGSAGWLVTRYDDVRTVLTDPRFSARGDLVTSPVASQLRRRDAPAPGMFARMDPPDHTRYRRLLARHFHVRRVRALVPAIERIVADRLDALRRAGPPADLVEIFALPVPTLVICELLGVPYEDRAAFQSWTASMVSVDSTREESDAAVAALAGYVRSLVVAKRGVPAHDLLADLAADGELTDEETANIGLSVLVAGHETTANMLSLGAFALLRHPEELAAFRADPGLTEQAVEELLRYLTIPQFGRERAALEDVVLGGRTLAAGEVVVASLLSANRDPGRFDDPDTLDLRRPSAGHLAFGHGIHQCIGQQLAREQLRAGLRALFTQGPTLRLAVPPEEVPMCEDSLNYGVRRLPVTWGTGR
The experiment in a line: type I difference spectra titration, nonlinear regression of A390-A422. It counts as binding. The note with it: 0-5 μM ligand; type I shift 422 to 390 nm; heme site.

The target of experiment [2] is T1, PtmO5. The experiment in a line: type I binding spectra. To be noted: heme site, poor solubility of 4.

Broadly, the Kd is the constant that tells how readily two partners part at equilibrium.

For the compound `C[C@@]12CCC[C@@](C)(C(=O)O)[C@H]1CC[C@@]13C[C@@H](CC[C@H]12)[C@](C)(O)C3` [compound 1, (16R)-hydroxy-ent-kauran-19-oic acid], on PtmO5 [1], the Kd was found to be 860 ± 70 nM.
Take `C=C1C[C@@]23CC[C@H]4[C@@](C)(CCC[C@@]4(C)C(=O)O)[C@@H]2CC[C@@H]1C3` [compound 4, ent-kaur-16-en-19-oic acid]: on PtmO5 [2], binding was characterised by a dissociation constant (Kd) of 750 ± 190 nM.
